According to PMC9937993, “Structures of the NDP-pyranose mutase belonging to glycosyltransferase family 75 reveal residues important for Mn^2+ coordination and substrate binding” (The Journal of Biological Chemistry, 2023):

Columns and labels:
Format in all cases: binding
[1] = molecular target: MtdL (Marinactinospora thermotolerans, UniProt G8HX37, N42D); test: ITC
[2] = molecular target: MtdL (Marinactinospora thermotolerans, UniProt G8HX37, T13P); test: ITC
[3] = molecular target: T1, MtdL (Marinactinospora thermotolerans, UniProt G8HX37); test: ITC; crystal structure of GDP·Mn2+·MtdL at […] Å
T1 sequence (G8HX37 1-376): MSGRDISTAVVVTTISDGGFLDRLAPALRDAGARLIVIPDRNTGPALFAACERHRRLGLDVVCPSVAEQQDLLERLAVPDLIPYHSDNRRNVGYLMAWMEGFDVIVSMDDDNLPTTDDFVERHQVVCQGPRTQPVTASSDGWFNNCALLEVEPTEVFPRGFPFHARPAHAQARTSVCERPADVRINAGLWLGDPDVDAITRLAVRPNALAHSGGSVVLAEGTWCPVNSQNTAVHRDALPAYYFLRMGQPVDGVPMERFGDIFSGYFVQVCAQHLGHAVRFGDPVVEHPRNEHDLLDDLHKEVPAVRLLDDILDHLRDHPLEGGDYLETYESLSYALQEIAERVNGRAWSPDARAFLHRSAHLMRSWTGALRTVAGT

SMILES: Nc1nc2c(ncn2[C@@H]2O[C@H](COP(=O)(O)OP(=O)(O)O)[C@@H](O)[C@H]2O)c(=O)[nH]1 [GDP]
- Kd [1]: ~1.24 µM
- Kd [2]: ~5.66 µM
- Kd [3]: ~0.2 µM
